Assays:
[1] = target: T1, human monoacylglycerol lipase (hMAGL) (Homo sapiens, UniProt Q99685); experiment: target-based real-time 1H NMR (chemical shift perturbation, covalent adduct formation and reactivation; residence time); type: binding
T1 construct: gene MGLL; highly purified recombinant hMAGL
T1 sequence (Q99685 1-303): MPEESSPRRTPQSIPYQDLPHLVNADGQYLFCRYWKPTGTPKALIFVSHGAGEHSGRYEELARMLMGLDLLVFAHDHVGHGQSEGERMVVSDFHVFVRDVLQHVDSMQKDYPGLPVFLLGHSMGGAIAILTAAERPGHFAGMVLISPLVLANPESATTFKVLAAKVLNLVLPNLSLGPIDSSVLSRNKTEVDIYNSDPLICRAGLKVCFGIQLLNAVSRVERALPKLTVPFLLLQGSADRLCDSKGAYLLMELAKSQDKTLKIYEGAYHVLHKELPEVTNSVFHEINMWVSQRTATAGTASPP

[2] = target: T1, human monoacylglycerol lipase (hMAGL); experiment: target-based real-time 1H NMR (chemical shift perturbation, covalent adduct formation and reactivation; residence time […] h); IC50 on recombinant hMAGL also printed; type: biochemical; conditions: cited from earlier work

Substance | target-based real-time 1H NMR (chemical shift perturbation, covalent adduct form) [1] [h] | IC50 [2] [nM]
AM4301 | 1.4 | 
AM9928 |  | 8.9

Source: paper PMC8964799, “Inhibition of triple negative breast cancer-associated inflammation, tumor growth and brain colonization by targeting monoacylglycerol lipase” (Scientific Reports, 2022)
